Legend:
Type in all cases: cell-based
Conditions in all cases: 16.7 μM AA92593; COS-1 cells
mouse melanopsin [1] = biological target: T1, mouse melanopsin (Mus musculus, UniProt Q9QXZ9); experiment: GsX GloSensor assay with Gsα/i11
T1 construct: the C-terminal amino acid residues (94, 140, 200, 214, 296, and 308 residues); expressed in transfected cells; host or cells: COS-1
Excerpt: (§1) Previous studies of human and mouse melanopsins reported that these melanopsins can activate not only Gq but Gs and Gi ([20], [21], [22]). Thus, we assessed the effect of AA92593 on Gsα WT or Gsα/i11 (with 11 C-terminal sequence of Giα) using the GsX GloSensor assay. In agreement with the promiscuous G protein-coupling of melanopsins, we observed light-dependent increase of GloSensor luminescence in COS-1 cells expressing Gsα or Gsα/i11 with human/mouse melanopsins (Fig. 1, G–J).
(§2) For GloSensor assay, opsins, GloSensor assay sensor (coded by pGlo-22F), and NanoBiT-tagged G proteins were transiently expressed in COS-1 cells (kindly provided from Dr David Farrens, Oregon Health and Science University) using PEI as described previously ([24], [52]). […] For GFP-fluorescence microscopy, a 35-mm cell culture dish (IWAKI) was transfected with 2 μg melanopsin-GFP plasmid and 8 μg PEI in 400 μl Opti-mem and 1.2 ml D-MEM. […]
(§3) The transfected COS-1 cells were incubated at 37 °C, 5% CO2 for 2 days, and the medium was aspirated and exchanged with 50 μl of HBSS (145 mM NaCl, 10 mM D-glucose, 5 mM KCl, 1 mM MgCl2, 1.7 mM CaCl2, 1.5 mM NaHCO3, 10 mM Hepes, pH 7.4), containing 33.3, 20, 10, 2, 0.2, 0.02, 0.002, or 0 μM AA92593, 0.5% dimetyl sulfoxide (DMSO), and 4% (vol/vol) GloSensor cAMP reagent stock solution. […] Luminescence was measured using GM-2000 or GM-3510 microplate reader (Promega). […]

human melanopsin = biological target: T2, human melanopsin (Homo sapiens, UniProt Q9UHM6); experiment: GsX GloSensor assay with exogenous Gsα WT; set-up: the C-terminal amino acid residues (94, 140, 200, 214, 296, and 308 residues); expressed in transfected cells; host or cells: COS-1
T2 sequence (Q9UHM6 1-384 limits assumed): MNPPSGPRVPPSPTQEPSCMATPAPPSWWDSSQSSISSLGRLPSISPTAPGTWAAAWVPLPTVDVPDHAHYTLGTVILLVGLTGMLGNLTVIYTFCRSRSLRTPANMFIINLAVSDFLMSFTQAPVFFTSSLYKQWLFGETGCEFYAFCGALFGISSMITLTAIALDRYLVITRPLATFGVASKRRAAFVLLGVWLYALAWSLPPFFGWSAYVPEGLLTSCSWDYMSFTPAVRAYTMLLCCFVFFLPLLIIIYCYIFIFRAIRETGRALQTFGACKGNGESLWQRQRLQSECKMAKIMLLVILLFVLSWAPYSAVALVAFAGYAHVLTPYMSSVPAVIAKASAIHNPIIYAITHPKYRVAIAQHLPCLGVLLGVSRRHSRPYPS
Excerpt: as §1, §2, §3

mouse melanopsin [2] = biological target: T1, mouse melanopsin; experiment: GsX GloSensor assay with exogenous Gsα WT
Excerpt: as §1, §2, §3

T1 sequence (Q9QXZ9 1-381 limits assumed): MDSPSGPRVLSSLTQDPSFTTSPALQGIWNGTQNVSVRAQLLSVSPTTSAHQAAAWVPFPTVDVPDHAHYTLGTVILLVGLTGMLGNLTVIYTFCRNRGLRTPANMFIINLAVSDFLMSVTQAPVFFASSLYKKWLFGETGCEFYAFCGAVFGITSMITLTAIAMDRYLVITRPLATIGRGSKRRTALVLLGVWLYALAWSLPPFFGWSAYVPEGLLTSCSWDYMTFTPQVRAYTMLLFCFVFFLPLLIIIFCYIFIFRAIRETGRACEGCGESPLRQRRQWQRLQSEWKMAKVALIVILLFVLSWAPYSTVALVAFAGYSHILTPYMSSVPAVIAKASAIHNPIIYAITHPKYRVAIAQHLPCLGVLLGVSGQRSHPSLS

COc1ccc(S(=O)(=O)N2CCCCC2)cc1C [AA92593]
can suppress: effect on melanopsin-induced cAMP responses via Gsα/i11 (mouse melanopsin [1]) | effect on melanopsin-induced cAMP responses via exogenous Gsα (human melanopsin) | effect on melanopsin-induced cAMP responses via exogenous Gsα (mouse melanopsin [2])

Source: publication PMC12051620, “Molecular basis underlying the specificity of an antagonist AA92593 for mammalian melanopsins” (The Journal of Biological Chemistry, 2025)
